The subject of data set [1] is anti-sense pra2 transgenic plants. Description: Complementation of dark-grown anti-sense pra2 transgenic plants with phytohormones and BR intermediates (hypocotyl length). Type of data set: in vivo, Nicotiana tabacum. To be noted: for stimulatory effect on hypocotyls as % of the BL effect / rescue of the dwarfish hypocotyls in BR feeding experiment: anti-sense pra2 transgenic plants grown 5 days in complete darkness; for stimulatory effect on hypocotyls as % of the BL effect: 6-OHCS 10^-8 M, 6-deoxoCS 10^-8 M; for rescue of the dwarfish hypocotyls in BR feeding experiment: CS 10^-8 M. The method, then:
Seeds of Nicotiana tabacum (Petit Havana SR1) were germinated and grown in sterile condition at 25° C. with a 16-hour photoperiod. The Arabidopsis thaliana ecotype Columbia (Col-0) was germinated and grown on 0.5×Murashige and Skoog medium containing 1% agar and Suc. All Arabidopsis cultures were maintained in a controlled environment culture room at 22° C. with the humidity of 70% and the photoperiod of 12 hours. Feeding experiments were also performed in the same culture conditions.
Plant growth regulators tested were BR, GA, auxin, cytokinine, abscisic acid, and salicylic acid. The BR hormones included the most oxidized brassinolide (BL, 10^−8 M) and various intermediates, such as campestanol (CN, 10^−6 M), 6-oxocampestanol (6-oxoCN, 10^−6 M), 6-deoxocathasterone (6-deoxoCT, 10^−6 M), cathasterone (CT, 10^−6 M), 6-deoxoteasterone (6-deoxoTE, 10^−6 M), teasterone (TE, 10^−6 M), 6-deoxotyphasterol (6-deoxoTY, 10^−7 M), typhasterol (TY, 10^−7 M), 6-deoxocastasterone (6-deoxoCS, 10^−8 M), 6α-hydroxycastasterone (6-OHCS, 10^−8 M), and castasterone (CS, 10^−8 M). Each BR intermediates were used at the concentrations as indicated in parentheses. […] Plants were germinated and grown in the presence of each BR intermediate for 4-7 days either in the light or in complete darkness. Hypocotyl lengths of 30-50 plants in each treatment were measured and averaged.

For data set [2], the system named is DDWF1. Description: Substrate specificity of recombinant DDWF1 with BR intermediates, HPLC analysis. Type of data set: biochemical, pea. To be noted: reaction mixtures analyzed on HPLC. How it is done:
For HPLC analysis, BR intermediates were incubated with the DDWF1 as with testosterone, and the mixture was analyzed on the Waters 626 LC System and Photodiode Array Detector (Waters, Milford, Mass.). The reverse-phase Supelcosil LC-18 (250×4.6 mm, Supelco, Pa., USA) was used at a flow rate of 2 ml/min. The solvents used were 45% acetonitrile for the first 20 min, a gradient of 45% to 100% for the next 20 min, and pure acetonitrile for the last 10 min.

Data set [3] concerns DDWF1. Description: DDWF1 activity assay with [4-14C]testosterone, TLC analysis. In kind it is biochemical, pea. To be noted: N-terminal truncated recombinant DDWF1. How it is done: Forty μl of the [4-^14C]testosterone (Amersham-Pharmacia, Cat. No. CFA129, 193 μCi/mg) was aliquoted, and the solvent was evaporated under gentle stream of N2 gas. Yeast microsomal fractions were prepared as described (Pompon et al., 1996). Thirty μg of microsomal fraction, 5 μg of Pra2 protein, and various amounts of the recombinant DDWF1 were used for each reaction, each with 175 μl of the reaction buffer (1M HEPES, pH 7.4, 0.1 mM EDTA, 0.5 mM GTP, 10 mM MgCl2). The mixture was transferred to the tube containing the lyophilized testosterone and incubated for 10 min at 37° C. Twenty-five μl of NADPH solution, prepared in the same reaction buffer, was then added to the mixture to a final concentration of 1 mM. The total mixture was further incubated for 30 min at 37° C. and terminated by adding 1 ml of ethyl acetate and vortexing for 30 sec. After centrifugation for 4 min at 15000×g, the upper layer was recovered and evaporated in chemical hood overnight. The dry pellet was dissolved in 20 μl of ethyl acetate, spotted on TLC on Silicagel 60 F254 (20×20 cm, Merck, Darmstadt, Germany), and developed in dichloromethane/acetone (4:1 by volume) and then in chloroform/ethyl acetate/ethanol (4:1:0.7 by volume) as described (Waxman, 1991).

The target in data set [4] is T34N Pra2-GST fusion protein (dominant negative form) [GST: P08515].
Data set [5] deals with wild type Pra2-GST fusion protein [GST: P08515].
The target of data set [6] is Q79L Pra2-GST fusion protein (constitutively active form) [GST: P08515].

These results are taken from patent US6605469B1, “Nucleic acid molecule encoding a cytochrome P-450 hydroxylase in brassinosteroid biosynthesis in plants” (Korea Kumho Petrochemical Co., Ltd., priority 2000, dated 2003).

In the case of `CC(C)[C@H](C)[C@@H](O)[C@H](O)[C@@H](C)[C@H]1CC[C@H]2[C@@H]3C[C@H](O)[C@H]4C[C@H](O)[C@H](O)C[C@]4(C)[C@H]3CC[C@]12C` [6-OHCS, 6α-hydroxycastasterone], the “stimulatory effect on hypocotyls as % of the BL effect” value in data set [1] is on record as “about 50%”.
Take `CC(C)[C@H](C)[C@@H](O)[C@H](O)[C@@H](C)[C@H]1CC[C@H]2[C@@H]3CC[C@H]4C[C@H](O)[C@H](O)C[C@]4(C)[C@H]3CC[C@]12C` [6-deoxoCS, 6-deoxocastasterone]: the “stimulatory effect on hypocotyls as % of the BL effect” value in data set [1] is on record as about 60%.
Take `CC(C)[C@H](C)[C@@H](O)[C@H](O)[C@@H](C)[C@H]1CC[C@H]2[C@@H]3COC(=O)[C@H]4C[C@H](O)[C@H](O)C[C@]4(C)[C@H]3CC[C@]12C` [BL, brassinolide]: the “rescue of the dwarfish hypocotyls in BR feeding experiment” value in data set [1] (BL 10^-8 M) was “completely rescued”. For the same molecule, the “rescue of the dark-specific dwarfish hypocotyls” value in data set [1] (anti-sense pra2 transgenic tobacco grown in the dark, phytohormones at physiological concentrations, BL 10^-8 M) is “completely rescued”. In addition, the “growth kinetics of transgenic versus control seedlings in the presence of BL” value in data set [1] (dark-grown seedlings, hypocotyl length over time, FIG. 4C) is “became similar”. The “BL effect on transgenic plants grown in the light” value in data set [1] (transgenic plants grown in the light) is reported as “No BL effects”.
Take `CC(C)[C@H](C)[C@@H](O)[C@H](O)[C@@H](C)[C@H]1CC[C@H]2[C@@H]3CC(=O)[C@H]4C[C@H](O)[C@H](O)C[C@]4(C)[C@H]3CC[C@]12C` [CS, castasterone]: the “conversion by recombinant DDWF1 (substrate specificity)” value in data set [2] is “not the substrate”. The “rescue of the dwarfish hypocotyls in BR feeding experiment” value in data set [1] (BL 10^-8 M) was “completely rescued”.
Consider `CC(C)[C@H](C)[C@@H](O)[C@H](O)[C@@H](C)[C@H]1CC[C@H]2[C@@H]3CC(=O)[C@H]4C[C@H](O)CC[C@]4(C)[C@H]3CC[C@]12C` [TY, typhasterol], for which the “conversion by recombinant DDWF1 (substrate specificity)” value in data set [2] was “converted to CS”.
In the case of `C[C@]12CC[C@H]3[C@@H](CCC4=CC(=O)CC[C@@]43C)[C@@H]1CC[C@@H]2O` [Testosterone], the “substrate for DDWF1” value in data set [3] is reported as “not the substrate”.
gibberellins [GA]: the “stimulatory effect on hypocotyls relative to that by BL” value in data set [1] (anti-sense pra2 transgenic tobacco grown in the dark, phytohormones at physiological concentrations) is recorded as 20-30%.

B1: recombinant N-terminal truncated DDWF1, soluble form expressed in E. coli (protein)
chain: MALQVLTLPSWVTLFTTFAILLLFSRRLRRRQYNLPPGPKPWPIIGNFNLIGTLPHQSLHGLTQKYGPIMHLWFGSKRVVVGSTVEMAKAFLKTHDATLAGRPKFSAGKYTTYNYSDITWSQYGPYWRQARRMCLLELFSAKRLESYEYIRKQELHVFLHELFDSRNKTILLKDHLSSLSLNVISRMVLGRKYLEKVENSIISPDEFKNMLDELFLLNGILNIGDFIPWIHFLDFQGYVKRMKVLSKKFDGFMEHVLEEHIERRKGVKDYVAKDMVDVLLQLAEDPDLEVKLERHGVKAFTQDLIAGGTESSAVTVEWAISELIRKPEIFKKATEELDRVIGRERWVEEKDIANLPYVYAIAKETMRLHPVAPMLVPREAREDCNINGYDIPKGSLILVNTWTIARDSNVWDNPNEFMPERFLGKDIDVKGHDYELLPFGAGRRMCPGYPLGIKVIQSSLANLLHGFNWRLSDDVKKEDLNMEEIFGLSTPKKIHPG
B1: the “conversion efficiency (DDWF1 hydroxylase activity on a testosterone intermediate, TLC)” value was “the conversion efficiency was slightly higher with the wild type and Q79L than with the T34N” in data set [4]; “the conversion efficiency was slightly higher with the wild type and Q79L than with the T34N” in data set [5]; “the conversion efficiency was slightly higher with the wild type and Q79L than with the T34N” in data set [6].
